# Patent US7601753B2, “Pyrrolidine melanocortin-specific compounds” (Palatin Technologies, Inc., priority 2001, dated 2009)
# Like-named read-outs stand apart in the source and are kept apart here. Non-standard residues stand in square brackets, D forms with d. Residues, ends and D or L forms follow the SMILES beside them. *: point of attachment. Hyp = O=C(O)[C@@H]1C[C@@H](O)CN1; Nle = CCCC[C@H](N)C(=O)O; NH(CH2)3NH2 = NCCCN*; Bn = c1ccc(C*)cc1
# Experiments:
# hMC4-R = molecular target: T1, hMC4-R (Homo sapiens, UniProt P32245); assay: Competitive inhibition binding assay, 125I-NDP-α-MSH, hMC4-R; settings: 1 μM test compound, 0.4 nM 125I-NDP-α-MSH, hMC4-R membranes, mean of triplicates, results less than 0% reported as 0%; for inhibition at 1 µM: read-out: Inhibition at 1 μM MC4-R
# T1 construct: expressed in transfected cells
# Description: (§1) A competitive inhibition binding assay was conducted using membranes prepared from hMC3-R, hMC4-R, hMC5-R, and B-16 mouse melanoma cells (containing MC1-R) using 0.4 nM ^125I-NDP-α-MSH (New England Nuclear, Boston, Mass., USA) in 50 mM HEPES buffer containing 1 mM MgCl2, 2 mM CaCl2, and 5 mM KCl, at pH 7.2. The assay tube also contained a chosen concentration of the test compound of this invention, typically a 1 μM concentration, for determining its efficacy in inhibiting the binding of ^125I-NDP-α-MSH to its receptor.
# (§2) Incubation was for 90 minutes at room temperature, after which the assay mixture was filtered and the membranes washed three times with ice cold buffer. The filter was dried and counted in a gamma counter for remaining radioactivity bound to the membranes. 100% specific binding was defined as the difference in radioactivity (cpm) bound to cell membranes in the absence and presence of 1 μM α-MSH. […] Each assay was conducted in triplicate and the actual mean values are described.
# [1] = molecular target: T2, MC5-R (HEK-293 cells expressing MC5-R) (Homo sapiens, UniProt P33032); assay: Ki determination by the method of Example 3, MC5-R; assay type: cell-based
# T2 construct: expressed in transfected cells; host or cells: HEK-293
# [2] = molecular target: T3, MC1-R (B-16 mouse melanoma cells) (Mus musculus, UniProt Q01727); assay: Competitive inhibition binding assay, 125I-NDP-α-MSH, MC1-R; settings: 1 μM test compound; 0.4 nM 125I-NDP-α-MSH; B-16 mouse melanoma cell membranes; mean of triplicates; results less than 0% reported as 0%
# T3 construct: membranes prepared from hMC3-R, hMC4-R, hMC5-R, and B-16 mouse melanoma cells (containing MC1-R); endogenous in cells; host or cells: B-16 mouse melanoma cells (membranes)
# Description: as §1, §2
# hMC3-R = molecular target: T4, hMC3-R (Homo sapiens, UniProt P41968); assay: Competitive inhibition binding assay, 125I-NDP-α-MSH, hMC3-R; settings: 1 μM test compound, 0.4 nM 125I-NDP-α-MSH, hMC3-R membranes, mean of triplicates, results less than 0% reported as 0%; for inhibition at 1 µM: read-out: Inhibition at 1 μM MC3-R
# T4 construct: expressed in transfected cells
# Description: as §1, §2
# [3] = molecular target: T3, MC1-R (B-16 mouse melanoma cells); assay: Ki determination by the method of Example 3, MC1-R; assay type: cell-based
# hMC5-R = molecular target: T5, hMC5-R (Homo sapiens, UniProt P33032); assay: Competitive inhibition binding assay, 125I-NDP-α-MSH, hMC5-R; settings: 1 μM test compound, 0.4 nM 125I-NDP-α-MSH, hMC5-R membranes, mean of triplicates, results less than 0% reported as 0%; for inhibition at 1 µM: read-out: Inhibition at 1 μM MC5-R
# T5 construct: expressed in transfected cells
# Description: as §1, §2
# [4] = molecular target: T6, MC4-R (HEK-293 cells expressing MC4-R) (Homo sapiens, UniProt P32245); assay: Ki determination by the method of Example 3, MC4-R; assay type: cell-based; settings: bound in μM
# T6 construct: expressed in transfected cells; host or cells: HEK-293
# [5] = molecular target: T7, MC3-R (HEK-293 cells expressing MC3-R) (Homo sapiens, UniProt P41968); assay: Ki determination by the method of Example 3, MC3-R; assay type: cell-based; settings: bound in μM
# T7 construct: expressed in transfected cells; host or cells: HEK-293
# T7 sequence (P41968 whole entry): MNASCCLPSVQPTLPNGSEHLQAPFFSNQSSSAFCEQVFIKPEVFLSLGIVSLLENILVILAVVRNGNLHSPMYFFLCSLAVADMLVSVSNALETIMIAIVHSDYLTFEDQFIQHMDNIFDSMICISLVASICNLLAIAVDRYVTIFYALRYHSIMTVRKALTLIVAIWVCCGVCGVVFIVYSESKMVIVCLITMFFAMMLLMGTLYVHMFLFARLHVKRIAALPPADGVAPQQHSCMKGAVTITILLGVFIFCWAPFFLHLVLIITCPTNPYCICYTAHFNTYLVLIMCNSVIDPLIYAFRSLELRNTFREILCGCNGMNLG
# T3 sequence (Q01727 whole entry): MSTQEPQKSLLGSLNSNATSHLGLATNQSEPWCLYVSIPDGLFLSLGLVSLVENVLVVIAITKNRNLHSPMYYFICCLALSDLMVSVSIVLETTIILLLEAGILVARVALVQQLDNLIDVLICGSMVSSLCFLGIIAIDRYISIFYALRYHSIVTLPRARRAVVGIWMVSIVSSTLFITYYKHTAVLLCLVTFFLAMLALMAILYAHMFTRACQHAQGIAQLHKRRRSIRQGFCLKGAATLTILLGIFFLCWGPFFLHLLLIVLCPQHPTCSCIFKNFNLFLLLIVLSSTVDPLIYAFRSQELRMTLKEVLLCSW
# T5 sequence (P33032 whole entry): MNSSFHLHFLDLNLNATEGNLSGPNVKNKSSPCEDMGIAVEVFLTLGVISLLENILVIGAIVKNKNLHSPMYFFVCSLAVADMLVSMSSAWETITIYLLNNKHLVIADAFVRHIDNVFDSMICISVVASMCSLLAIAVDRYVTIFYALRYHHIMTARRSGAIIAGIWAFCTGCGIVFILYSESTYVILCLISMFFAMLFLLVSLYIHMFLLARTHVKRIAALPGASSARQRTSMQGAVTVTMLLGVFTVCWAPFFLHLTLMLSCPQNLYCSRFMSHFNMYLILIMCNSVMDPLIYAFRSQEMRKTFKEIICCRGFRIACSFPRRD
# T4 sequence (P41968 whole entry): as the sequence (P41968 whole entry) above
# T1 sequence (P32245 whole entry): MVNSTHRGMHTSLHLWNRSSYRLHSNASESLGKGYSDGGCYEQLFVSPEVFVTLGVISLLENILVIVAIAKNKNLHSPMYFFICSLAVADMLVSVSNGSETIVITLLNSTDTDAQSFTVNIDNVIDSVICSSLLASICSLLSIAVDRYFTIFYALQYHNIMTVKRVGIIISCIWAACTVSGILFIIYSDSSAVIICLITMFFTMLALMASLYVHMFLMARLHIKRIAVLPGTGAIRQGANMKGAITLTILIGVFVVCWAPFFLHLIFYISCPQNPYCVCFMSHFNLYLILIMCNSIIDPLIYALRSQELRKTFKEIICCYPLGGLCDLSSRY
# T2 sequence (P33032 whole entry): as the sequence (P33032 whole entry) above
# T6 sequence (P32245 whole entry): as the sequence (P32245 whole entry) above
Compound,inhibition at 1 µM (hMC4-R) [%],inhibition at 1 µM [2] [%],inhibition at 1 µM (hMC3-R) [%],inhibition at 1 µM (hMC5-R) [%],further results
"CCCC[C@H](NC(C)=O)C(=O)N[C@@H](C)C(=O)N[C@@H](Cc1cnc[nH]1)C(=O)N[C@H](Cc1ccccc1)C(=O)N1C[C@H](OCc2ccccc2)C[C@H]1C(=O)NCCCN [Example 9, Ac-Nle-Ala-His-D-Phe-Hyp(Bzl)-NH(CH2)3—NH2] (Ac-[Nle]AH[dF][Hyp](Bn)-{NH(CH2)3NH2})",8,91,13,25,"Ki ([1]; bound in μM, read-out: Ki MC5-R): > 1 µM; Ki ([3]; MC1-R, values in nM, read-out: Ki (nM) MC1-R): 10 nM; Ki [4]: > 1 µM; Ki [5]: > 1 µM"
CCCC[C@H](N)C(=O)N[C@@H](C)C(=O)N[C@@H](Cc1cnc[nH]1)C(=O)N[C@H](Cc1ccccc1)C(=O)N1C[C@H](OCc2ccccc2)C[C@H]1C(=O)NCCCN [Example 10] (H-[Nle]AH[dF][Hyp](Bn)-{NH(CH2)3NH2}),2,83,6,7,Ki [3]: 70 nM
[2H]N[C@@H](Cc1cnc[nH]1)C(=O)N[C@@H](Cc1ccccc1)C(=O)N1C[C@H](OCc2ccccc2)C[C@H]1C(=O)NCCCN [Example 12],0,48,0,2,–
C[C@@H]1CN(C(=O)[C@H](N)Cc2ccc(Cl)cc2)[C@@H](CCCNC(=N)N)CN1CCc1ccc2ccccc2c1 [Example 15],–,–,–,–,Inhibition at 1 μM MC4-R (hMC4-R): 43%; Inhibition at 1 μM MC1-R [2]: 85%; Inhibition at 1 μM MC3-R (hMC3-R): 46%; Inhibition at 1 μM MC5-R (hMC5-R): 34%

# The next lines start with results.
inhibition at 1 µM (hMC4-R) [%],inhibition at 1 µM [2] [%],inhibition at 1 µM (hMC3-R) [%],inhibition at 1 µM (hMC5-R) [%],Compound,further results
29,40,6,48,NCCCNC(=O)[C@@H]1C[C@@H](OCc2ccccc2)CN1C(=O)[C@@H](Cc1ccc(Cl)cc1)NC(=O)[C@@H]1Cc2ccccc2CN1 [Example 21],"Ki ([1]; value in nM, read-out: Ki (nM) MC5-R): 1.15 µM"
27,29,10,38,NCCCNC(=O)[C@@H]1C[C@@H](OCc2ccccc2)CN1C(=O)[C@@H](Cc1ccc(Cl)cc1)NC(=O)[C@H]1Cc2ccccc2CN1 [Example 22],–
6,34,0,14,NCCCNC(=O)[C@@H]1C[C@@H](OCc2ccccc2)CN1C(=O)[C@@H](Cc1ccccc1)NC(=O)[C@@H]1Cc2ccccc2CN1 [Example 23],–
5,17,0,0,NCCCNC(=O)[C@@H]1C[C@@H](OCc2ccccc2)CN1C(=O)[C@@H](Cc1ccccc1)NC(=O)[C@H]1Cc2ccccc2CN1 [Example 24],–
2,50,12,7,[2H]N[C@@H](Cc1cnc[nH]1)C(=O)N[C@@H](Cc1ccccc1)C(=O)N1C[C@H](OCc2ccccc2)C[C@H]1C(=O)NCCCCN [Example 25],–
